Holding throughout (format): functional
Test [1] concerns Ostrinia nubilalis. Kind of test: Antifeedant activity against Ostrinia nubilalis (European corn borer) larvae assessed as amount of food consumed at 0.10% of diet dry weight after 5 days relative to control.
Test [2] has as its system Ostrinia nubilalis. Kind of test: Antifeedant activity against Ostrinia nubilalis (European corn borer) larvae assessed as amount excreted at 0.40% of diet dry weight after 5 days relative to control.
Test [3] deals with Ostrinia nubilalis. Kind of test: Effect on growth of male Ostrinia nubilalis (European corn borer) larvae assessed as pupal weight at 0.01% of diet dry weight after 6 days relative to control.
Test [4] relates to Ostrinia nubilalis. Nature of the test: Antifeedant activity against Ostrinia nubilalis (European corn borer) larvae assessed as amount excreted at 0.60% of diet dry weight after 5 days relative to control.
The test system of test [5] is Ostrinia nubilalis. Kind of test: Antifeedant activity against Ostrinia nubilalis (European corn borer) larvae assessed as amount excreted at 0.10% of diet dry weight after 5 days relative to control.
Test [6] relates to Ostrinia nubilalis. Kind of test: Effect on growth of female Ostrinia nubilalis (European corn borer) larvae assessed as adult emergence at 0.10% of diet dry weight after 6 days relative to control.
The subject of test [7] is Ostrinia nubilalis. Kind of test: Antifeedant activity against Ostrinia nubilalis (European corn borer) larvae assessed as growth rate at 0.20% of diet dry weight after 5 days relative to control.
In test [8] the test system is Ostrinia nubilalis. Nature of the test: Antifeedant activity against Ostrinia nubilalis (European corn borer) larvae assessed as amount of weight gain by the insect at 0.20% of diet dry weight after 5 days relative to control.
The subject of test [9] is Ostrinia nubilalis. Nature of the test: Effect on growth of male Ostrinia nubilalis (European corn borer) larvae assessed as pupal weight at 0.10% of diet dry weight after 6 days relative to control.
Test [10] deals with Ostrinia nubilalis. Kind of test: Insecticidal activity against Ostrinia nubilalis (European corn borer) larvae assessed as mortality at 0.10 to 0.80% of diet dry weight after 5 days relative to control.
In test [11] the test system is Ostrinia nubilalis. Nature of the test: Effect on growth of female Ostrinia nubilalis (European corn borer) larvae assessed as adult emergence at 0.001% of diet dry weight after 6 days relative to control.
The test system of test [12] is Ostrinia nubilalis. Nature of the test: Effect on growth of male Ostrinia nubilalis (European corn borer) larvae assessed as adult emergence at 0.001% of diet dry weight after 6 days relative to control.
In test [13] the test system is Ostrinia nubilalis. Nature of the test: Effect on growth of male Ostrinia nubilalis (European corn borer) larvae assessed as larval duration at 1% of diet dry weight after 6 days relative to control.
Test [14] has as its system Ostrinia nubilalis. Kind of test: Effect on growth of female Ostrinia nubilalis (European corn borer) larvae assessed as pupal duration at 0.01% of diet dry weight after 6 days relative to control.
The subject of test [15] is Ostrinia nubilalis. Nature of the test: Effect on growth of female Ostrinia nubilalis (European corn borer) larvae assessed as adult emergence at 0.01% of diet dry weight after 6 days relative to control.
In test [16] the test system is Ostrinia nubilalis. Nature of the test: Antifeedant activity against Ostrinia nubilalis (European corn borer) larvae assessed as amount of food consumed at 0.40% of diet dry weight after 5 days relative to control.
Test [17] has as its system Ostrinia nubilalis. Kind of test: Effect on growth of male Ostrinia nubilalis (European corn borer) larvae assessed as larval duration at 0.001% of diet dry weight after 6 days relative to control.
The test system of test [18] is Ostrinia nubilalis. Nature of the test: Antifeedant activity against Ostrinia nubilalis (European corn borer) larvae assessed as amount of food consumed at 0.60% of diet dry weight after 5 days relative to control.
The subject of test [19] is Ostrinia nubilalis. Kind of test: Effect on growth of female Ostrinia nubilalis (European corn borer) larvae assessed as pupal duration at 0.10% of diet dry weight after 6 days relative to control.
For test [20], the system named is Ostrinia nubilalis. Nature of the test: Effect on growth of female Ostrinia nubilalis (European corn borer) larvae assessed as pupal weight at 0.10% of diet dry weight after 6 days relative to control.
Test [21] deals with Ostrinia nubilalis. Kind of test: Effect on growth of female Ostrinia nubilalis (European corn borer) larvae assessed as larval duration at 1% of diet dry weight after 6 days relative to control.

Regarding `CC(C)=CCc1c2c(c3occ(-c4ccc(O)cc4)c(=O)c3c1O)C=CC(C)(C)O2` [OSAJIN], the Activity in the test with Ostrinia nubilalis [1] was -8%; in the test on Ostrinia nubilalis [2] it was 17.6%; in the test with Ostrinia nubilalis [3], 75 mg; in the test on Ostrinia nubilalis [4] it was 10.8%; in the test with Ostrinia nubilalis [5] it was -1.4%; in the test on Ostrinia nubilalis [6] it was 50%. The Activity with Ostrinia nubilalis [7] is on record as -1%; with Ostrinia nubilalis [8], -3%; in the test with Ostrinia nubilalis [9] it was 75 mg; with Ostrinia nubilalis [11] it was 54%; in the test with Ostrinia nubilalis [12], 71%; in the test on Ostrinia nubilalis [15] it was 44%. Besides, the Activity in the test on Ostrinia nubilalis [16] is recorded as 30.5%; in the test with Ostrinia nubilalis [18] it was 36%; in the test on Ostrinia nubilalis [20], 102 mg. Moreover, the mortality entry in the test with Ostrinia nubilalis [10] is given as “<=7%”. In addition, the Time with Ostrinia nubilalis [13] is 11.3 days; with Ostrinia nubilalis [14], 6.3 days; in the test on Ostrinia nubilalis [17], 11.4 days; in the test on Ostrinia nubilalis [19], 7.1 days; in the test on Ostrinia nubilalis [21], 12.4 days.

As for `CC(C)=CCc1c2c(c3occ(-c4ccc(O)c(O)c4)c(=O)c3c1O)C=CC(C)(C)O2` [POMIFERIN], the Activity is reported as 33.2% with Ostrinia nubilalis [1]; 5.4% with Ostrinia nubilalis [2]; 72 mg in the test with Ostrinia nubilalis [3]; 16.1% in the test with Ostrinia nubilalis [4]; 30.4% in the test with Ostrinia nubilalis [5]; 67% in the test on Ostrinia nubilalis [6]. Further, the Activity amounted to 4.7% in the test on Ostrinia nubilalis [7]; 17.7% in the test with Ostrinia nubilalis [8]; 74 mg in the test on Ostrinia nubilalis [9]; 50% with Ostrinia nubilalis [11]; 78% with Ostrinia nubilalis [12]; 54% in the test on Ostrinia nubilalis [15]. For the same compound, the results for the Activity in the test with Ostrinia nubilalis [16], in the test on Ostrinia nubilalis [18] and in the test on Ostrinia nubilalis [20] were 34.2%, 38.5% and 100 mg, respectively. Further, the mortality result in the test on Ostrinia nubilalis [10] is listed as “<=11%”. The Time in the test with Ostrinia nubilalis [13] turned out to be 11.2 days; with Ostrinia nubilalis [14], 7 days; in the test on Ostrinia nubilalis [17] it was 10.7 days; in the test on Ostrinia nubilalis [19], 6.3 days; in the test with Ostrinia nubilalis [21] it was 12.9 days.

These data come from ChEMBL document CHEMBL3045511, “Effects of Two Isoflavonoids, Osajin and Pomiferin, from Maclura pomifera for Growth and Feeding Disruption in Ostrinia nubilalis” (2001).
